For orientation: EC50 means the concentration at which the effect is half-maximal.

Molecules are shown by their SMILES. Starred links: 1 amine or outer side, 2 acyl side, 3 side chain; linkers in the order of their positions; H or OH if unused. Non-standard residues stand in square brackets, D forms with d. Residues, ends and D or L forms follow the SMILES beside them. ξ: configuration not given here. *: point of attachment. C20 diacid = O=C(O)CCCCCCCCCCCCCCCCCCC(=O)*; C18 diacid = O=C(O)CCCCCCCCCCCCCCCCC(=O)*; C16 diacid = O=C(O)CCCCCCCCCCCCCCC(=O)*; γGlu = O=C(O)[C@H](CCC(=O)[*:2])N[*:1]; Hyp = O=C(O)[C@@H]1C[C@@H](O)CN1; Trx = NC[C@H]1CC[C@H](C(=O)O)CC1; ξαMeN = CC(N)(CC(N)=O)C(=O)O; AEEA = NCCOCCOCC(=O)O; Inp = O=C(O)C1CCNCC1

This note sets out measurements from patent US20260265329A1, “POLYPEPTIDE AND DERIVATIVE THEREOF, COMPOSITION, AND USE THEREOF” (HANGZHOU SCIWIND BIOSCIENCES CO., LTD., priority 2023, published 2026).

For this assay, the target named is T1, human amylin receptors (Homo sapiens, UniProt O60896+P30988).
T1 construct: host or cells: CHO-K1/Ga15/AMY3 cells, further stably transfected with a CRE-luciferase plasmid
T1 sequence (P30988 25-474): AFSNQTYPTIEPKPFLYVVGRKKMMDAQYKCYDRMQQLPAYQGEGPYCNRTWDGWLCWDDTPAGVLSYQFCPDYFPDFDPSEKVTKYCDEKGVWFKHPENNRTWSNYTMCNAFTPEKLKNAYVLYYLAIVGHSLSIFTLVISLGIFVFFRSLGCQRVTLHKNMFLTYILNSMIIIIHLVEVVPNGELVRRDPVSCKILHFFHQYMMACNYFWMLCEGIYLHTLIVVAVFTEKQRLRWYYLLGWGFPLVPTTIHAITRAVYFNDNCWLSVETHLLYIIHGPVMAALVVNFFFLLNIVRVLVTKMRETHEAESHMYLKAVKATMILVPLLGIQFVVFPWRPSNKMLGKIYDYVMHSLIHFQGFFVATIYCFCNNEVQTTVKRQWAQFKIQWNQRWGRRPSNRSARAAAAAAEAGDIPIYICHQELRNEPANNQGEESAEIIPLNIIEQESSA
T1 sequence (O60896 24-148 partner): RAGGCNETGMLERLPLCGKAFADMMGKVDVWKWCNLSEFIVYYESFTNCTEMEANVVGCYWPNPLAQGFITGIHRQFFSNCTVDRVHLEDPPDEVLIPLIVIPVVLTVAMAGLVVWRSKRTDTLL
The assay is described as follows: Luciferase assay in stably transfected amylin receptor/CRE-luc CHO cell line. Particulars: for Relative activity: EC50 ratio of Cagrilintide to the compound, Cagrilintide 100%; for EC50: amylin receptor/CRE-luc CHO cells, 24 hours incubation, luminescence. It counts as cell-based.

With `CC[C@H](C)[C@H](NC(=O)[C@@H]1CCCN1C(=O)[C@H](CCCCN)NC(=O)[C@H](CC(C)C)NC(=O)[C@H](CC(N)=O)NC(=O)[C@H](CC(N)=O)NC(=O)[C@H](CO)NC(=O)[C@H](CO)NC(=O)[C@H](Cc1c[nH]cn1)NC(=O)[C@H](CCCNC(=N)N)NC(=O)[C@H](CC(C)C)NC(=O)[C@H](Cc1ccccc1)NC(=O)[C@H](CC(=O)O)NC(=O)[C@H](C)NC(=O)[C@H](CC(C)C)NC(=O)[C@H](CCCNC(=N)N)NC(=O)[C@H](CCC(N)=O)NC(=O)[C@@H](NC(=O)[C@H](C)NC(=O)[C@H](C)NC(=O)[C@@H](NC(=O)[C@H](CO)NC(=O)[C@H](CC(C)C)NC(=O)[C@H](CCC(N)=O)NC(=O)[C@H](CO)NC(=O)[C@H](C)NC(=O)COCCOCCNC(=O)COCCOCCNC(=O)[C@H](CC(=O)O)NC(=O)CCCCCCCCCCCCCCCCCCC(=O)O)[C@@H](C)O)[C@@H](C)O)C(=O)N[C@@H](CC(C)C)C(=O)N1CCC[C@H]1C(=O)N1CCC[C@H]1C(=O)N[C@H](C(=O)N[C@@H](CC(N)=O)C(=O)N[C@H](C(=O)NCC(=O)N[C@@H](CO)C(=O)N[C@@H](CC(N)=O)C(=O)N[C@H](C(=O)N1C[C@H](O)C[C@H]1C(N)=O)[C@@H](C)O)C(C)C)[C@@H](C)O` [M34] ({C20 diacid}-D[AEEA][AEEA]ASQLSTAATQRLADFLRHSSNNLKPILPPTNVGSNT[Hyp]-NH2), the Relative activity is 40% and the midpoint of the response, the EC50, lay at 0.132 nM. `CC[C@H](C)[C@H](NC(=O)[C@@H]1CCCN1C(=O)[C@H](CCCCN)NC(=O)[C@H](CC(C)C)NC(=O)[C@H](CC(N)=O)NC(=O)[C@H](CC(N)=O)NC(=O)[C@H](CO)NC(=O)[C@H](CO)NC(=O)[C@H](Cc1c[nH]cn1)NC(=O)[C@H](CCCNC(=N)N)NC(=O)[C@H](CC(C)C)NC(=O)[C@H](Cc1ccccc1)NC(=O)[C@H](CC(=O)O)NC(=O)[C@H](C)NC(=O)[C@H](CC(C)C)NC(=O)[C@H](CCCNC(=N)N)NC(=O)[C@H](CCC(N)=O)NC(=O)[C@@H](NC(=O)[C@H](C)NC(=O)[C@H](C)NC(=O)[C@@H](NC(=O)[C@H](CO)NC(=O)[C@H](CC(C)C)NC(=O)[C@H](CCC(N)=O)NC(=O)[C@H](CO)NC(=O)[C@H](C)NC(=O)COCCOCCNC(=O)COCCOCCNC(=O)[C@H]1CC[C@H](CNC(=O)CCCCCCCCCCCCCCCCCCC(=O)O)CC1)[C@@H](C)O)[C@@H](C)O)C(=O)N[C@@H](CC(C)C)C(=O)N1CCC[C@H]1C(=O)N1CCC[C@H]1C(=O)N[C@H](C(=O)N[C@@H](CC(N)=O)C(=O)N[C@H](C(=O)NCC(=O)N[C@@H](CO)C(=O)N[C@@H](CC(N)=O)C(=O)N[C@H](C(=O)N1C[C@H](O)C[C@H]1C(N)=O)[C@@H](C)O)C(C)C)[C@@H](C)O` [M35] ({C20 diacid-Trx-AEEA-AEEA}-ASQLSTAATQRLADFLRHSSNNLKPILPPTNVGSNT[Hyp]-NH2): the Relative activity came out at 124%. The compound `CC[C@H](C)[C@H](NC(=O)[C@@H]1CCCN1C(=O)[C@H](CCCCN)NC(=O)[C@H](CC(C)C)NC(=O)[C@H](CC(N)=O)NC(=O)[C@H](CC(N)=O)NC(=O)[C@H](CO)NC(=O)[C@H](CO)NC(=O)[C@H](Cc1c[nH]cn1)NC(=O)[C@H](CCCNC(=N)N)NC(=O)[C@H](CC(C)C)NC(=O)[C@H](Cc1ccccc1)NC(=O)[C@H](CC(=O)O)NC(=O)[C@H](C)NC(=O)[C@H](CC(C)C)NC(=O)[C@H](CCCNC(=N)N)NC(=O)[C@H](CCC(N)=O)NC(=O)[C@@H](NC(=O)[C@H](C)NC(=O)[C@H](C)NC(=O)[C@@H](NC(=O)[C@H](CO)NC(=O)[C@H](CC(C)C)NC(=O)[C@H](CCC(N)=O)NC(=O)[C@H](CO)NC(=O)[C@H](C)NC(=O)COCCOCCNC(=O)COCCOCCNC(=O)C1CCN(C(=O)CCCCCCCCCCCCCCCCCCC(=O)O)CC1)[C@@H](C)O)[C@@H](C)O)C(=O)N[C@@H](CC(C)C)C(=O)N1CCC[C@H]1C(=O)N1CCC[C@H]1C(=O)N[C@H](C(=O)N[C@@H](CC(N)=O)C(=O)N[C@H](C(=O)NCC(=O)N[C@@H](CO)C(=O)N[C@@H](CC(N)=O)C(=O)N[C@H](C(=O)N1C[C@H](O)C[C@H]1C(N)=O)[C@@H](C)O)C(C)C)[C@@H](C)O` [M36] ({C20 diacid-Inp-AEEA-AEEA}-ASQLSTAATQRLADFLRHSSNNLKPILPPTNVGSNT[Hyp]-NH2) had an EC50 of 0.059 nM. Turning to `CC[C@H](C)[C@H](NC(=O)[C@@H]1CCCN1C(=O)[C@H](CCCCN)NC(=O)[C@H](CC(C)C)NC(=O)[C@H](CC(N)=O)NC(=O)[C@H](CC(N)=O)NC(=O)[C@H](CO)NC(=O)[C@H](CO)NC(=O)[C@H](Cc1c[nH]cn1)NC(=O)[C@H](CCCNC(=N)N)NC(=O)[C@H](CC(C)C)NC(=O)[C@H](Cc1ccccc1)NC(=O)[C@H](CC(=O)O)NC(=O)[C@H](C)NC(=O)[C@H](CC(C)C)NC(=O)[C@H](CCCNC(=N)N)NC(=O)[C@H](CCC(N)=O)NC(=O)[C@@H](NC(=O)[C@H](C)NC(=O)[C@H](C)NC(=O)[C@@H](NC(=O)[C@H](CO)NC(=O)[C@H](CC(C)C)NC(=O)[C@H](CCC(N)=O)NC(=O)[C@H](CO)NC(=O)[C@H](C)NC(=O)CC[C@H](NC(=O)CCCCCCCCCCCCCCCCC(=O)O)C(=O)O)[C@@H](C)O)[C@@H](C)O)C(=O)N[C@@H](CC(C)C)C(=O)N1CCC[C@H]1C(=O)N1CCC[C@H]1C(=O)N[C@H](C(=O)N[C@@H](CC(N)=O)C(=O)N[C@H](C(=O)NCC(=O)N[C@@H](CO)C(=O)N[C@@H](CC(N)=O)C(=O)N[C@H](C(=O)N1C[C@H](O)C[C@H]1C(N)=O)[C@@H](C)O)C(C)C)[C@@H](C)O` [M37] ({C18 diacid-γGlu}-ASQLSTAATQRLADFLRHSSNNLKPILPPTNVGSNT[Hyp]-NH2), the Relative activity stood at 184% and the concentration for a half-maximal effect (EC50) stood at 0.03 nM.

As to `CC[C@H](C)[C@H](NC(=O)[C@@H]1CCCN1C(=O)[C@H](CCCCN)NC(=O)[C@H](CC(C)C)NC(=O)[C@H](CC(N)=O)NC(=O)[C@H](CC(N)=O)NC(=O)[C@H](CO)NC(=O)[C@H](CO)NC(=O)[C@H](Cc1c[nH]cn1)NC(=O)[C@H](CCCNC(=N)N)NC(=O)[C@H](CC(C)C)NC(=O)[C@H](Cc1ccccc1)NC(=O)[C@H](CC(=O)O)NC(=O)[C@H](C)NC(=O)[C@H](CC(C)C)NC(=O)[C@H](CCCNC(=N)N)NC(=O)[C@H](CCC(N)=O)NC(=O)[C@@H](NC(=O)[C@H](C)NC(=O)[C@H](C)NC(=O)[C@@H](NC(=O)[C@H](CO)NC(=O)[C@H](CC(C)C)NC(=O)[C@H](CCC(N)=O)NC(=O)[C@H](CO)NC(=O)[C@H](C)NC(=O)CC[C@H](NC(=O)CCCCCCCCCCCCCCC(=O)O)C(=O)O)[C@@H](C)O)[C@@H](C)O)C(=O)N[C@@H](CC(C)C)C(=O)N1CCC[C@H]1C(=O)N1CCC[C@H]1C(=O)N[C@H](C(=O)N[C@@H](CC(N)=O)C(=O)N[C@H](C(=O)NCC(=O)N[C@@H](CO)C(=O)N[C@@H](CC(N)=O)C(=O)N[C@H](C(=O)N1C[C@H](O)C[C@H]1C(N)=O)[C@@H](C)O)C(C)C)[C@@H](C)O` [M38] ({C16 diacid-γGlu}-ASQLSTAATQRLADFLRHSSNNLKPILPPTNVGSNT[Hyp]-NH2), the Relative activity came out at 181% and the EC50 was 0.03 nM.

As to `CC[C@H](C)[C@H](NC(=O)[C@@H]1CCCN1C(=O)[C@H](CCCCN)NC(=O)[C@H](CC(C)C)NC(=O)C(C)(CC(N)=O)NC(=O)[C@H](CC(N)=O)NC(=O)[C@H](CO)NC(=O)[C@H](CO)NC(=O)[C@H](Cc1c[nH]cn1)NC(=O)[C@H](CCCNC(=N)N)NC(=O)[C@H](CC(C)C)NC(=O)[C@H](Cc1ccccc1)NC(=O)[C@H](CC(=O)O)NC(=O)[C@H](C)NC(=O)[C@H](CC(C)C)NC(=O)[C@H](CCCNC(=N)N)NC(=O)[C@H](CCC(N)=O)NC(=O)[C@@H](NC(=O)[C@H](C)NC(=O)[C@H](C)NC(=O)[C@@H](NC(=O)[C@H](CO)NC(=O)[C@H](CC(C)C)NC(=O)[C@H](CCC(N)=O)NC(=O)[C@H](CO)NC(=O)[C@H](C)NC(=O)CC[C@H](NC(=O)CCCCCCCCCCCCCCCCCCC(=O)O)C(=O)O)[C@@H](C)O)[C@@H](C)O)C(=O)N[C@@H](CC(C)C)C(=O)N1CCC[C@H]1C(=O)N1CCC[C@H]1C(=O)N[C@H](C(=O)N[C@@H](CC(N)=O)C(=O)N[C@H](C(=O)NCC(=O)N[C@@H](CO)C(=O)N[C@@H](CC(N)=O)C(=O)N[C@H](C(=O)N1C[C@H](O)C[C@H]1C(N)=O)[C@@H](C)O)C(C)C)[C@@H](C)O` (stereo partly drawn) [M55] ({C20 diacid-γGlu}-ASQLSTAATQRLADFLRHSSN[ξαMeN]LKPILPPTNVGSNT[Hyp]-NH2), the Relative activity was 233%.
